The source of these data is patent US20160296529A1, “AMINOTRIAZOLOPYRIDINE FOR USE IN THE TREATMENT OF INFLAMMATION, AND PHARMACEUTICAL COMPOSITIONS THEREOF” (priority 2012, published 2016).

Where “and” joins values, the source holds several entries; their conditions need not be identical. Equal entries are not always repeated. Where two headings read alike, the source gives them in different places.

Assay [1] relates to IFNα-induced STAT1 phosphorylation (JAK1/TYK2 pathway). The experiment in a line: Human whole blood assay (hWBA), IFNα stimulation, phospho-STAT1 on CD4+ cells. The format is cell-based. Particulars: 6 different donors. On the procedure: A flow cytometry analysis was performed to establish JAK1 over JAK2 compound selectivity ex vivo using human whole blood. Therefore, blood is taken from human volunteers who gave informed consent. Blood is then equilibrated for 30 min at 37° C. under gentle rocking, then aliquoted in Eppendorf tubes. Compound is added at different concentrations and incubated at 37° C. for 30 min under gentle rocking and subsequently stimulated for 20 min at 37° C. under gentle rocking with interleukin 6 (IL-6) for JAK1-dependent pathway stimulation, Interferon alpha (IFNα) for JAK1/TYK2 pathway stimulation, interleukin 2 (IL-2) for JAK1/JAK3 pathway stimulation or GM-CSF for JAK2-dependent pathway stimulation. Phospho-STAT1 (for IL-6- and IFNα-stimulated cells) and phospho-STAT5 (for IL-2- and GM-CSF-stimulated cells) levels are then evaluated using FACS analysis. […]
Cells were then washed once with 1×PBS and analyzed on a FACSCanto II flow cytometer (BD Biosciences).
50,000 total events were counted and Phospho-STAT1 positive cells were measured after gating on CD4+ cells, in the lymphocyte gate for IL-6- and IFNα-stimulated cells. Phospho-STAT5 positive cells were measured after gating on CD4+ cells, in the lymphocyte gate for IL-2-stimulated cells. Phospho-STAT5 positive cells were measured after gating on CD33+ cells. […]

The target in assay [2] is T1, Recombinant human TYK2 catalytic domain (Homo sapiens, UniProt P29597).
T1 construct: amino acids 871-1187; catalog number 08-147; GST; purchased Carna Biosciences 08-147
T1 sequence (P29597 871-1187): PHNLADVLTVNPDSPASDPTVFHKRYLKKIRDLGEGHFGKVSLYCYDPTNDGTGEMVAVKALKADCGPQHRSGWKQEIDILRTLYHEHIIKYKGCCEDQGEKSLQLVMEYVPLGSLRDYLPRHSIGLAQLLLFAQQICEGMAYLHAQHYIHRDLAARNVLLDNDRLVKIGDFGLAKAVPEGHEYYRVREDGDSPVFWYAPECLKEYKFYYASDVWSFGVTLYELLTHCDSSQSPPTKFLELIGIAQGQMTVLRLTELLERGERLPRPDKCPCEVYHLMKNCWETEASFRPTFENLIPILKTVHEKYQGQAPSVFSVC
The experiment in a line: TYK2 inhibition assay. The format is biochemical. On the procedure:
Recombinant human TYK2 catalytic domain (amino acids 871-1187; catalog number 08-147) was purchased from Carna biosciences. 4 ng of TYK2 was incubated with 12.5 μg polyGT substrate (Sigma catalog number P0275) in kinase reaction buffer (25 mM Hepes pH 7.2, 50 mM NaCl, 0.5 mM EDTA, 1 mM DTT, 5 mM MnCl2, 10 mM MgCl2, 0.1% Brij-35, 0.1 μM non-radioactive ATP, 0.125 μCi ^33P-gamma-ATP (Perkin Elmer, catalog number NEG602K001MC) final concentrations) with or without 5 μL containing test compound or vehicle (DMSO, 1% final concentration), in a total volume of 25 μL, in a polypropylene 96-well plate (Greiner, V-bottom). After 90 min at 30° C., reactions were stopped by adding 25 μL/well of 150 mM phosphoric acid. […] 40 μL/well of Microscint-20 was added, the top of the plates was sealed and readout was performed using the Topcount (Perkin Elmer). Kinase activity was calculated by subtracting counts per min (cpm) obtained in the presence of a positive control inhibitor (10 μM staurosporine) from cpm obtained in the presence of vehicle. The ability of a test compound to inhibit this activity was determined as:
Percentage inhibition−((cpm determined for sample with test compound present−cpm determined for sample with positive control inhibitor) divided by (cpm determined in the presence of vehicle−cpm determined for sample with positive control inhibitor))*100. […]

Broadly, the IC50 is the point on the concentration scale where inhibition reaches its midpoint. For `Nc1nc2cccc(-c3ccc(CN4CCS(=O)(=O)CC4)cc3)n2n1` [Formula I, 5-[4-(1,1-Dioxothiomorpholin-4-ylmethyl)-phenyl]-[1,2,4]triazolo[1,5-a]pyridin-2-ylamine], the IC50 was 15.4 µM in assay [1]; above 3 µM in assay [2] (average, read-out: IC50 (average)); > 3.33 µM (3×) and 1.97 µM and 2.12 µM and 3.85 µM and 3.82 µM and 2.21 µM in assay [2] (individual determinations, read-out: IC50).
